Results published in patent publication US8809358B2, “Use of IκB-kinase inhibitors in pain therapy” (Sanofi-Aventis Deutschland GmbH, priority 2002, dated 2014).

Experiments:
[1] = test system: Zymosan-induced paw inflammation; assay: Zymosan-induced paw inflammation in the rat: paw withdrawal time during thermal stimulation (Hargreaves test); assay type: in vivo; details: for Change in the paw withdrawal time (%): 30 mg/kg i.p. 15 min before, 2.5 and 5.5 h after Zymosan
Description: (§1) • Zymosan-induced paw inflammation in the rat; • Parameter: paw withdrawal time or paw withdrawal threshold during thermal or mechanical stimulation of the hind paw. 2nd Model: • Kaolin/carrageenan-induced knee joint inflammation in the rat; • Parameter: reaction of spinal neurons during pressure stimulation of the knee. Model 1
(§2) Experimental implementation: in short-term anesthesia using isoflurane, 1 mg of Zymosan (as a suspension in 100 μl of PBS (phosphate-buffered salt solution)) was injected subcutaneously into the middle of the plantar side of one of the experimental animal's hind paws. After that, two different behavioral tests were used to quantitatively determine the development of a hyperalgesia.
a) Determining the Paw Withdrawal Time During Thermal Stimulation (Hargreaves Test).
The experimental animal was placed in a transparent plastic chamber having a glass floor. As soon as the experimental animal was no longer moving, following the reconnaissance phase (about 5 min), an infrared light source was positioned directly below the hind paw to be stimulated and switched on. The lamp emitted focused infrared light of increasing intensity, such that the skin temperature of the hind paw increased almost linearly. As soon as the animal withdrew the paw, the lamp switched itself off. The temperature of the paw at the time it is withdrawn has just become unpleasant for the animal; this is referred to as the thermal pain threshold.
(§3) About half an hour before, and at various times after, the Zymosan injection, the thermal and mechanical pain thresholds were determined on the right hind paw and on the left hind paw (see Tables 1, 2). The decrease in the ipsilateral pain threshold, expressed in % of the contralateral pain threshold, was then calculated (see Tables 1, 2). The degree of hyperalgesia is directly proportional to the magnitude of this decrease.
(§4) In a control group, the Zymosan injection induced pronounced mechanical and thermal hyperalgesia (see control data in Tabs. 1 and 2).

[2] = test system: Zymosan-induced paw inflammation; assay: Zymosan-induced paw inflammation in the rat: paw withdrawal threshold during mechanical stimulation (von Frey test); assay type: in vivo; details: for Change in the paw withdrawal threshold (%): 30 mg/kg i.p. 15 min before, 2.5 and 5.5 h after Zymosan
Description: as §1, §2
b) Determining the Paw Withdrawal Threshold During Mechanical Stimulation (von Frey Test)
The experimental animal was placed in a transparent plastic chamber whose floor consisted of wire-gauze. Punctuate pressure of defined strength was produced using calibrated nylon fibers, what are termed von Frey hairs. The weakest pressure stimulation during which the animal withdrew its paw determines the mechanical pain threshold.
as §3, §4

[3] = test system: Zymosan-induced paw inflammation; assay: Zymosan-induced paw inflammation in the mouse: paw withdrawal time during thermal stimulation of the hind paw; assay type: in vivo; details: for Statistical difference as compared with the vehicle: thermal hyperalgesia AUC
Description: • Zymosan-induced paw inflammation in the mouse; • Parameter: paw withdrawal time during thermal stimulation of the hind paw. Experimental implementation: In short-term anesthesia using isoflurane, 25 μl of a suspension containing 50 mg of zymosan/ml were injected into the right hind paw of the experimental animal. The development of a hyperalgesia was then determined quantitatively as follows: Determining the Paw Withdrawal Time During Thermal Stimulation (Hargreave's Test; See Above). The experimental animal was placed in a transparent plastic chamber having a glass floor. As soon as the experimental animal was no longer moving, following the reconnaissance phase (about 5 min), an infrared light source was positioned directly below the hind paw to be stimulated and switched on. The lamp emitted focused infrared light of increasing intensity such that the skin temperature of the hind paw increased almost linearly. As soon as the animal withdrew the paw, the lamp switched itself off. The temperature of the paw at the time it is withdrawn has just become unpleasant for the animal; this is referred to as the thermal pain threshold. Shortly before the zymosan injection, and for from 7 to 14 days after the injection, the thermal pain threshold was determined once daily on the right hind paw and left hind paw. Subsequently, the integral of the area which was formed from the curves for the paw withdrawal times of the inflamed paw and the noninflamed paw (AUC, area between the curves, see tables 5 and 6) was determined as a measure of the hyperalgesia. The larger this value is, the more pronounced is the hyperalgesia, and the smaller the value is in animals which are being given the substance, the greater is the success of the therapy. […] A very high dose of paracetamol was likewise administered twice daily to another group of animals which was taken through the experiment in parallel. […] The scheme for zymosan injection and dosing was identical to that in the previously described study. The only difference was that this additional study ran for 14 days.

[4] = test system: Zymosan-induced paw inflammation; assay: Zymosan-induced paw inflammation in the mouse: spontaneous running performance in a running wheel; assay type: in vivo, C57/B6 mice; details: for Statistical difference as compared with the vehicle: running wheel AUC, seven days
Description: 4th Model: • Zymosan-induced paw inflammation in the mouse; • Parameter: spontaneous running performance in a running wheel. In the cage in which it is kept, the experimental animal has access to a running wheel, the revolutions of which are recorded electronically. During the night hours, the C57/B6 mice use the running wheel voluntarily and, after a one-week phase of acclimatization, cover on average 4 100 meters/night. After zymosan has been injected, the distance run each night is reduced. This reduction in running performance is a valid parameter for a restriction in function which is due to inflammation pain. Experimental implementation: After an acclimatization phase of one week, the distance run/24 hours was measured in order to determine the base line. 25 μl of a suspension containing 50 mg of zymosan/ml were then injected into the right hind paw of the experimental animal during short-term anesthesia using isoflurane. The distance run/24 hours was then determined during the following seven days. In the analysis, the area under the curve for the values for the distance run was determined (AUC, tab. 7): the lower the AUC, the lower was the running performance during the week following injection of the zymosan. […] The substance was administered for the first time on day 1 after injection of the zymosan.

SMILES: CNc1nccc(-c2cc3cc(C(=O)N[C@@H](CN(c4ccccc4)c4ccccc4)c4n[nH]c(=O)o4)ccc3[nH]2)n1 [Compound 13, N—[(S)-2-diphenylamino-1-(5-oxo-4,5-dihydro[1,3,4]oxadiazol-2-yl)ethyl]-2-(2-methylaminopyrimidin-4-yl)-1H-indole-5-carboxamide]
- Change in the paw withdrawal time (%) ([1]; 4 h after Zymosan injection): −16.0%
- Change in the paw withdrawal time (%) ([1]; 5 h after Zymosan injection): −9.7%
- Change in the paw withdrawal time (%) ([1]; 6 h after Zymosan injection): 5.0%
- Change in the paw withdrawal time (%) ([1]; 7 h after Zymosan injection): 3.4%
- Change in the paw withdrawal time (%) ([1]; 24 h after Zymosan injection): −3.8%
- Change in the paw withdrawal time (%) ([1]; Baseline −0.5 h): 0.0%
- persistence of the effect on thermal hyperalgesia after the last administration ([1]; 30 mg/kg i.p. three times): ≥ 18 h
- side difference in the paw withdrawal time ([1]; 30 mg/kg i.p., after the third administration of the substance): no longer possible to observe any side difference at all
- thermal hyperalgesia compared with the control group ([1]; 30 mg/kg i.p., from two hours after Zymosan injection onward): less pronounced
- reduction of thermal hyperalgesia compared with the NSAID diclofenac ([1]; comparative data from a study carried out previously): considerably more powerfully
- activity in the test model ([1]; thermal hyperalgesia): very strong
- onset of the effect on mechanical hyperalgesia after Zymosan injection ([2]; 30 mg/kg i.p.): 1 h
- Change in the paw withdrawal threshold (%) ([2]; 2 h after Zymosan injection): −36.0%
- Change in the paw withdrawal threshold (%) ([2]; 24 h after Zymosan injection): −9.7%
- Change in the paw withdrawal threshold (%) ([2]; Baseline −0.5 h): 0.0%
- mechanical hyperalgesia ([2]; 30 mg/kg i.p. three times): significantly reduced
- persistence of the effect on mechanical hyperalgesia after the last administration ([2]; 30 mg/kg i.p. three times): ≥ 18 h
- activity in the test model ([2]; mechanical hyperalgesia): very strong
- activity in the test model ([3]; mouse, 7-day study): very strong activity
- reduction of thermal hyperalgesia compared with paracetamol ([3]; mouse, 7-day study): to a greater extent
- AUC (thermal hyperalgesia), dose dependence ([3]; mouse, 7-day study, orally twice daily): decreased in a dose-dependent manner
- thermal hyperalgesia, dose dependence ([3]; mouse, 14-day study): reduce thermal hyperalgesia in a dose-dependent manner
- effect on thermal hyperalgesia at the high dosage, compound 13 versus Celecoxib ([3]; mouse, 14-day study, high dosage): equally strong effects
- Statistical difference as compared with the vehicle ([3]; 14 days, 25 mg/kg): yes
- Statistical difference as compared with the vehicle ([3]; seven days, 2.8 mg/kg orally twice daily): no
- Statistical difference as compared with the vehicle ([3]; seven days, 25 mg/kg orally twice daily): yes
- Statistical difference as compared with the vehicle ([3]; seven days, 75 mg/kg orally twice daily): yes
- distance run as compared with the vehicle group ([4]; mouse, 7 days, both the higher doses): dose-dependent increase
- Statistical difference as compared with the vehicle ([4]; 2.8 mg/kg twice daily): no
- Statistical difference as compared with the vehicle ([4]; 25 mg/kg twice daily): yes
- Statistical difference as compared with the vehicle ([4]; 75 mg/kg twice daily): yes
